Data published in patent publication US20230340127A1, “METHODS AND COMPOSITIONS FOR CANCER TREATMENT BY INHIBITION OF FBXO44” (Sanford Burnham Prebys Medical Discovery Institute, priority 2022, published 2023).

System: 4T1 tumors
Assay: 4T1 mammary tumors in syngeneic immunocompetent mice, F5446 plus anti-PD-1 antibody
Format: in vivo, mouse
Procedure: 4T1 tumor experiment: 10^5 4T1 cells were inoculated into the mammary fat pads of 6- to 8-week-old female BALB/c mice (The Jackson Laboratory). Tumor size was measured twice weekly. After 22 days, mice were euthanized and portions of each tumor processed for flow cytometry and histological analysis. For antibody treatments, mice were administered 200 μg rat IgG2a isotype control (BioXCell no. BP0089) or anti-PD-1 (BioXCell no. BP0273) antibody via i.p. injection on days 15, 17, 19, 21 and 23 post-inoculation of 4T1 cells. For combination treatments, mice were administered vehicle (10% Cremophor EL in PBS) or F5446 at 10 mg/kg body weight via i.p. injection on days 12, 14, 16, 18, 20, and 22 post-inoculation of cells and administered 200 μg rat IgG2a isotype (control) or anti-PD-1 antibody via i.p. injection on days 15, 17, 19, 21, and 23 post-inoculation of 4T1 cells. Mouse survival was monitored with tumor volume exceeding 2000 mm^3, weight loss>20%, and decreasing behavioral conditions considered as endpoints.
To investigate the effects of pharmacologically targeting SUV39H1, F5446, on tumor growth and immunotherapy response, experiments using mouse model were performed as described in previous examples. Mice were also treated with F5446. Growth curve, survival curve, IHC, and qRT-PCR experiments were performed as described in previous examples.

COC(=O)c1cc2c(n1S(=O)(=O)c1ccc(Cl)cc1)C(=O)C(=O)c1[nH]cc(C(=O)OCc3ccccc3)c1-2 [F5446]
sensitivity of 4T1 tumors to anti-PD-1 therapy (F5446 10 mg/kg i.p. combined with 200 μg anti-PD-1 antibody i.p. (FIGS. 12M-12O)): enhanced
mouse survival (F5446 combined with anti-PD-1 therapy, 4T1 tumors (FIG. 12O)): increased
